Data on twelve compounds can be found in publication PMC10143968, “Chamigrane-Type Sesquiterpenes from Laurencia dendroidea as Lead Compounds against Naegleria fowleri” (Marine Drugs, 2023).

The test system of one data set is N. fowleri ATCC 30808™. The experiment in a line: In vitro activity against Naegleria fowleri trophozoites (alamarBlue), ATCC 30808 strain. The class given is cell-based. The conditions noted are these: for IC50: trophozoites, alamarBlue, 48 h, 37 °C, read-out: 50% inhibitory concentration (IC50) against N. fowleri ATCC 30808™. The procedure: (§1) The in vitro experiments were carried out using two different Naegleria fowleri type strains, ATCC 30808™ and ATCC 30215™. The cells were grown in axenic conditions as previously described in other works of our group. The strains were cultured in a level 3 biological security facility at the Instituto Universitario de Enfermedades Tropicales y Salud Pública de Canarias, Universidad de La Laguna, Spain.
(§2) An alamarBlue™-based colorimetric assay was used to determine the in vitro activity of the chamigrane-type sesquiterpenes. Briefly, a known concentration of the trophozoites (2 × 10^5 cells/mL) was incubated with serial dilutions of the compounds. After, the alamarBlue™ reagent was added and the plate was placed at 37 °C for 48 h. Finally, the fluorescence was read and a non-linear regression analysis with a 95% confidence limit, in order to reckon the 50% and 90% inhibitory concentration (IC50 and IC90), was performed.
(§3) The in vitro IC50, IC90 and CC50 were determined by a non-linear regression analysis with a 95% of confidence limit using the Graphpad Prism version 9.0 (GraphPad Software; CA; USA). Three independent experiments were performed to obtain each data, which is expressed as mean ± standard deviation (SD).
A general note: The colour change of resazurin is a common sign of viable cells or microbes.

The next data set relates to N. fowleri ATCC 30215™. The experiment in a line: In vitro activity against Naegleria fowleri trophozoites (alamarBlue), ATCC 30215 strain. It counts as cell-based. As to conditions: 37 °C, read-out: 50% inhibitory concentration (IC50) against N. fowleri ATCC 30215™. The procedure: as §1, §2, §3
In data set [1] the test system is Murine Macrophages J774.A1. The experiment in a line: In vitro cytotoxicity (alamarBlue). The class given is cell-based. As to conditions: mouse, 24 h. The procedure: (§4) The cytotoxicity assays were carried out in a murine macrophages cell line (ATCC TIB-67). The cells were incubated in Dulbecco’s Modified Eagle’s medium (GIBCO, Thermo Fisher Scientific, Madrid, Spain) (DMEM, w/v) supplemented with 10% (v/v) fetal bovine serum (FBS) and 10 µg/mL of gentamicin (Sigma-Aldrich, Madrid, Spain) at 37 °C in a 5% of CO2 atmosphere. The in vitro cytotoxicity of the compounds was determined following the alamarBlue ™ protocol mentioned in the previous section. Murine macrophages were incubated with serial dilutions of the evaluated molecules for 24 h at 37 °C and in presence of 5% of CO2. Finally, the 50% cytotoxic concentration (CC50) was determined after reading the fluorescence. The in vitro IC50, IC90 and CC50 were determined by a non-linear regression analysis with a 95% of confidence limit using the Graphpad Prism version 9.0 (GraphPad Software; CA; USA). Three independent experiments were performed to obtain each data, which is expressed as mean ± standard deviation (SD).

The test system of data set [2] is Naegleria fowleri cysts (ATCC 30808™). Put plainly: In vitro cysticidal activity (alamarBlue fluorometric assay). The class given is cell-based. As to conditions: ATCC30808, ATCC 30808™ cysts, 24 h incubation then 72 h with alamarBlue, read-out: IC50 against N. fowleri cysts (cysticidal activity). The protocol:
For the in vitro cysticidal activity assays, the Naegleria fowleri ATCC 30808™ strain was used. Cysts were obtained transferring the bactocasitone grown trophozoites to the MYAS medium and keeping them for ten days in slight agitation. The in vitro activity of the compounds against the Naegleria fowleri cyst was determined using an alamarBlue™-based fluorometric assay as previously described. Mature cysts were incubated with serial dilutions of the evaluated compound for 24 h at 37 °C. After that, the medium was removed and fresh bactocasitone was added. Later, the alamarBlue® reagent was placed and the plates were incubated for 72 additional hours at 37 °C. Finally, the EnSpire Multimode Plate Reader (PerkinElmer, Madrid, Spain) was used to read the fluorescence and calculate the IC50 as described in Section 4.3. The in vitro IC50, IC90 and CC50 were determined by a non-linear regression analysis with a 95% of confidence limit using the Graphpad Prism version 9.0 (GraphPad Software; CA; USA). Three independent experiments were performed to obtain each data, which is expressed as mean ± standard deviation (SD).

Data set [3] concerns Naegleria fowleri ATCC 30808™ trophozoites. The experiment in a line: Chromatin condensation (Hoechst 33342/PI double stain). As to conditions: IC90 (2.45 µM), 24 h. The class given is cell-based. The procedure:
(§5) For the determination of the type of cell death that induces (+)-elatol (1), different commercial kits were used. […] Next, the reagents corresponding to each kit were added, allowing the appearance of programmed cell death (PCD) processes in the cells to be observed. Moreover, the percentage of stained cells was determined using the EVOS™ M5000 Software (Invitrogen by Thermo Fisher Scientific). All experiments were performed in triplicate and five different images (×40) were processed each time.
The condensed chromatin was detected with the double-stain apoptosis detection kit (Hoechst 33342/PI) (Life Technologies, Madrid, Spain). The Hoechst 33342 stain emits blue fluorescence in the presence of condensed chromatin while the Propidium iodide (PI) is able to travel through the membrane of dead cells and emit a red fluorescence.
(§6) The percentage of stained cells determination in the PCD assays was calculated using the EVOS™ M5000 Software (Invitrogen by Thermo Fisher Scientific). […] The bar graph of the mitochondrial membrane potential evaluation illustrates the mean fluorescence and SD emitted by the aggregate and monomer forms of the JC-1 stain. […] Moreover, in all the PCD assays, a one-way analysis of variance (ANOVA) was assessed to study the differences between the treated and negative control trophozoites. ** p < 0.01; *** p < 0.001; **** p < 0.0001 significant differences.

Data set [4] deals with Naegleria fowleri (ATCC 30808™) trophozoites. It counts as cell-based. As to conditions: not told. The procedure:
as §5
The permeability of the plasma membrane was assessed with the SYTOX Green® stain. The plasma membrane is impermeable to the dye in healthy conditions. However, when the permeability of the plasma membrane is compromised, the SYTOX Green® enters the cells, binds the DNA and emits an intense green fluorescence at 523 nm wavelength.
as §6

The subject of data set [5] is Naegleria fowleri ATCC 30808™ trophozoites. Put plainly: Reactive oxygen species production (CellROX Deep Red). The class given is cell-based. As to conditions: IC90 (2.45 µM), 24 h. The procedure: as §5
To determine the oxidative damage, the CellROX Deep Red fluorescent assay (Thermo Fisher Scientific) was used. […] These reagents produce red fluorescence with maximum absorption/emission peaks of ~644/665 nm when facing the reactive oxygen species (ROS) in the cytoplasm.
as §6

For data set [6] the test system is unchanged. Put plainly: Mitochondrial membrane potential (JC-1). As to conditions: IC90 (2.45 µM), 24 h. The class given is cell-based. The protocol: as §5
For determining mitochondrial damage in treated amoebae, two different assays were performed. Firstly, to measure the collapse of the transmembrane electrochemical gradient, a lipophilic cationic dye called JC-1 (Cayman Chemicals Vitro SA, Madrid, Spain) was used. […] When the membrane potential is high, the fluorophore will be found in the mitochondria in the j-aggregates form emitting red fluorescence at 595 nm. On the other hand, when membrane depolarization occurs, the reagent disperses and remains in its monomeric form showing green fluorescence at 535 nm.
The percentage of stained cells determination in the PCD assays was calculated using the EVOS™ M5000 Software (Invitrogen by Thermo Fisher Scientific). […] The bar graph of the mitochondrial membrane potential evaluation illustrates the mean fluorescence and SD emitted by the aggregate and monomer forms of the JC-1 stain. […]

The test system is the same in data set [7]. Put plainly: ATP production (CellTiter-Glo). The class given is cell-based. As to conditions: IC90 (2.45 µM), 24 h. The procedure: as §5
Afterwards, to validate the mitochondrial damage, the levels of ATP produced in the amoebae treated with the IC90 of the compound were analyzed using the CellTiter-Glo® Luminescent Cell Viability Assay reagent (Promega Biotech Ibérica S.L, Madrid, Spain) following manufacturer’s instructions.
Background: ATP-based viability assays read luminescence as a measure of living cells.

Data set [8] can be described thus: In vitro cytotoxicity (alamarBlue). It counts as cell-based, murine. The conditions noted are these: mouse. The procedure:
as §4

The mark [9] stands for this setting: Naegleria fowleri, ATCC30808, 48 h.
Where [10] appears, read: Naegleria fowleri, ATCC30215, 48 h.
Setting [11] is: J774.A1 murine macrophage cell line (ATCC TIB-67), alamarBlue, 24 h, 37 °C, read-out: 50% cytotoxic concentration (CC50) against murine macrophages J774.A1.

Like-named read-outs stand apart in the source and are kept apart here.

Usually IC90 stands for the concentration at which the effect reaches the 90% level. A higher IC90 goes with weaker potency. Regarding `C=C1CC(O)C(Br)C(C)(C)C12CCC(C)=C(Cl)C2` (single isomer, unassigned; (+)) [(+)-Elatol (1), (+)-elatol], the IC90 in the data set with N. fowleri ATCC 30808™ (Naegleria fowleri, ATCC30808, ATCC 30808™ strain) turned out to be 2.45 µM. In addition, the IC50 in the data set with N. fowleri ATCC 30808™ stood at 1.08 ± 0.09 µM; in the data set on N. fowleri ATCC 30215™ (48 h), 1.14 ± 0.09 µM; in [2] it was 1.14 µM. Further, in data set [1], the CC50 was determined as 61.5 ± 13 µM. Moreover, the “chromatin condensation (Hoechst 33342 fluorescence)” value in data set [3] is on record as “intense blue fluorescence”. Besides, in [3], the “propidium iodide staining (red fluorescence)” value is recorded as “absence of the red fluorescence”. For the same compound, the “plasma membrane permeability (SYTOX Green fluorescence)” value in data set [4] is “plasma membrane is damaged in treated cells”. Also, in data set [5], the “ROS generation (CellROX Deep Red)” value is reported as “induces the over-generation of ROS”. Also, the “mitochondrial membrane potential (JC-1)” value in data set [6] is “depolymerization of the mitochondrial membrane potential”. In addition, in data set [7], the “reduction of ATP production compared to untreated cells” value was found to be 82.11%.

Take `C=C1CC(O)C(Br)C(C)(C)C12CCC(C)=C(Cl)C2` (single isomer, unassigned; (-)) [(−)-Elatol (2), (−)-elatol]: the “fold less potent than (+)-elatol (1)” value in the data set with N. fowleri ATCC 30808™ (IC50 ratio against N. fowleri trophozoites) amounted to 34 fold. Further, the IC50 in the data set with N. fowleri ATCC 30808™ came to 36.8 ± 8.03 µM; in the data set on N. fowleri ATCC 30215™ (48 h), 38 ± 7.61 µM. In data set [1], the CC50 is greater than 150 µM.

As for `C=C1CC(O)C(Br)C(C)(C)C12CCC(C)(Cl)C(Br)C2` (single isomer, unassigned; (-)) [(−)-Rogiolol (5), (−)-rogiolol], the values for the IC50 in the data set on N. fowleri ATCC 30808™ (setting [9]) and in the data set with N. fowleri ATCC 30215™ (setting [10]) were 22.5 ± 5.81 µM and 9.71 ± 0.82 µM, respectively. The same compound displayed a CC50 at 24 h in data set [8] (50% cytotoxic concentration (CC50) against murine macrophages J774.A1) of 142 ± 17.2 µM.

Consider `C=C1C[C@H](O)CC(C)(C)[C@@]12CCC(C)=C(Cl)C2` [(+)-Debromoelatol (3), (+)-debromoelatol], for which the IC50 in the data set on N. fowleri ATCC 30808™ (setting [9]) is greater than 98.1 µM.

As to `C=C1C[C@H](O)[C@H](Br)C(C)(C)[C@]12CC=C(C)CC2` [(+)-Dechloroelatol (4), (+)-dechloroelatol], in the data set with N. fowleri ATCC 30808™ (setting [9]), the IC50 is greater than 83.5 µM.

As to `C=C1C[C@@H](O)[C@@H](Br)C(C)(C)[C@]12CC[C@@](C)(O)[C@@H](Cl)C2` [(+)-Dendroidiol (7), (−)-dendroidiol], the IC50 in the data set with N. fowleri ATCC 30808™ (setting [9]) was greater than 71.1 µM.

For `C=C1CC[C@@H](Br)C(C)(C)[C@@]12CC[C@@](C)(Br)[C@H](Cl)C2` [(+)-Obtusane (10), (+)-obtusane], the IC50 in the data set on N. fowleri ATCC 30808™ (setting [9]) was greater than 62.7 µM.

Turning to `C=C1C[C@@H](O)[C@@H](Br)C(C)(C)[C@]12CC[C@](C)(Br)[C@@H](Cl)C2` [(+)-Obtusol (9), (+)-obtusol], the IC50 in the data set with N. fowleri ATCC 30808™ (setting [9]) was greater than 60.3 µM.

Take `CC1=CC[C@@H](Br)C(C)(C)[C@]12CC[C@](C)(Br)[C@@H](Cl)C2` [(−)-3,10-dibromo-4-chloro-alpha-chamigrane]: the IC50 in the data set with N. fowleri ATCC 30808™ (setting [9]) was greater than 62.7 µM.

For `C=C1C[C@@H](O)[C@@H](Br)C(C)(C)[C@]12CC[C@@](C)(Cl)[C@H](Br)C2` [(−)-Cartilagineol (8), (−)-cartilagenol], the IC50 in the data set on N. fowleri ATCC 30808™ (setting [9]) is greater than 60.3 µM.

For `C[C@@H]1[C@H](O)[C@@H](C)/C=C/C=C/C=C/C=C/C=C/C=C/C=C/[C@H](O[C@@H]2O[C@H](C)[C@@H](O)[C@H](N)[C@@H]2O)C[C@@H]2O[C@](O)(C[C@@H](O)C[C@@H](O)[C@H](O)CC[C@@H](O)C[C@@H](O)CC(=O)O[C@H]1C)C[C@H](O)[C@H]2C(=O)O` [Amphotericin B, reference compound], the IC50 with N. fowleri ATCC 30808™ (setting [9]) amounted to 0.12 ± 0.03 µM. The CC50 at 24 h in [8] (setting [11]) was greater than 200 µM.

As to `CCCCCCCCCCCCCCCCOP(=O)([O-])OCC[N+](C)(C)C` [Miltefosine, reference compound], the IC50 in the data set on N. fowleri ATCC 30808™ (setting [9]) came out at 38.7 ± 4.23 µM; in the data set on N. fowleri ATCC 30215™ (setting [10]), 81.6 ± 7.23 µM. The CC50 at 24 h in data set [8] (setting [11]) came out at 128 ± 8.85 µM.
